According to BindingDB's records for doi:10.1016/j.bmc.2018.06.029 (East China University of Science & Technology, 2018):

Target: Tyrosine-protein kinase SYK (Homo sapiens) (UniProt P43405)
Assay: Inhibition of SYK (unknown origin) using FAM-labeled peptide as substrate preincubated for 10 mins followed by substrate addition measured after 25 mins

IC50 [µM]	SMILES
> 50	COC(=O)c1ccc(C(=O)NC2CCN(c3nc4c(c(Nc5ccc(OC)c(OC)c5)n3)CCC4)C2)cc1 (stereo unspecified)
14.2	COc1cc(Nc2nc(N3CCC(NC(=O)c4ccc(C(=O)O)cn4)C3)nc3c2COC3)cc(OC)c1OC (stereo unspecified)
> 50	CCOCCCNc1nc(N2CCC(NC(=O)c3ccc(C(=O)O)cn3)C2)nc2c1COC2 (stereo unspecified)
> 50	CCCCCNc1nc(N2CCC(NC(=O)c3ccc(C(=O)O)cn3)C2)nc2c1COC2 (stereo unspecified)
13.5	O=C(O)c1ccc(C(=O)NC2CCN(c3nc4c(c(NC5CCCCC5)n3)COC4)C2)nc1 (stereo unspecified)
23.7	COc1ccc(Nc2nc(N3CCC(NC(=O)c4ccc(C(=O)O)cn4)C3)nc3c2COC3)cc1OC (stereo unspecified)
19.2	CCc1ccc(Nc2nc(N3CCC(NC(=O)c4ccc(C(=O)O)cn4)C3)nc3c2COC3)cc1 (stereo unspecified)
> 50	COCCCNc1nc(N2CCC(NC(=O)c3ccc(C(=O)O)cn3)C2)nc2c1COC2 (stereo unspecified)
15.6	Cc1ccc(Nc2nc(N3CCC(NC(=O)c4ccc(C(=O)O)cn4)C3)nc3c2COC3)cc1C (stereo unspecified)
20.9	Cc1ccc(Nc2nc(N3CCC(NC(=O)c4ccc(C(=O)O)cn4)C3)nc3c2COC3)cc1 (stereo unspecified)
11.4	CCCCCCCNc1nc(N2CCC(NC(=O)c3ccc(C(=O)O)cn3)C2)nc2c1COC2 (stereo unspecified)
20.3	O=C(O)c1ccc(C(=O)NC2CCN(c3nc4c(c(Nc5ccc6c(c5)OCCO6)n3)COC4)C2)nc1 (stereo unspecified)
25.3	COc1ccc(Nc2nc(N3CCC(NC(=O)c4ccc(C(=O)O)cc4)C3)nc3c2CCC3)cc1OC (stereo unspecified)
9.7	CCCCCCNc1nc(N2CCC(NC(=O)c3ccc(C(=O)O)cn3)C2)nc2c1COC2 (stereo unspecified)
20.9	COc1cc(Nc2nc(N3CCC(NC(=O)c4ccc(C(=O)O)cn4)C3)nc3c2COC3)cc(OC)c1 (stereo unspecified)
32.1	COc1ccc(Nc2nc(N3CCC(NC(=O)c4ccc(C(=O)O)cn4)C3)nc3c2COC3)cc1 (stereo unspecified)
